Experimental data as given in US8557738B2, “Nitrogen-containing heterocyclic derivative and fungicide for agricultural and horticultural use” (Nippon Soda Co., Ltd., priority 2008, dated 2013).

System: apple scab pathogen (Venturia inaequalis)
Assay: Apple scab control test
Assay type: in vivo
Conditions: 336 h, emulsion sprayed at 100 ppm active ingredient onto apple seedlings (Ralls Janet), lesions on leaves after 2 weeks vs untreated, read-out: control value

Row | Structure (SMILES) | pest or weed control at 100 ppm
1 | c1ccc2c(c1)OCCN=C2c1cnc2ccccc2c1 [B1-1, 5-(3-Quinolinyl)-2,3-dihydro-benzo[f][1,4]oxazepine] | ≥ 75%
2 | CC1(C(F)(F)F)CN=C(c2cnc3c(F)cccc3c2)c2ccccc2O1 (centres unmarked) [B1-56, 5-(8-Fluoro-quinolin-3-yl)-2-methyl-2-trifluoromethyl-2,3-dihydro-benzo[f][1,4]oxazepine] | ≥ 75%
3 | CC1(C(F)(F)F)CN=C(c2cnc3ccccc3c2)c2ccccc2O1 (centres unmarked) [B1-51, 2-Methyl-5-quinolin-3-yl-2-trifluoromethyl-2,3-dihydro-benzo[f][1,4]oxazepine] | ≥ 75%
4 | CC1(Cc2ccc(F)cc2)CN=C(c2cnc3ccccc3c2)c2ccccc2O1 (centres unmarked) [B1-53, 2-(4-Fluorobenzyl)-2-methyl-5-quinolin-3-yl-2,3-dihydro-benzo[f][1,4]oxazepine] | ≥ 75%
5 | CC1(C)CN=C(c2cnc3sccc3c2)c2cccc(Cl)c2O1 [A1-20, 9-Chloro-2,2-dimethyl-5-(thieno[2,3-b]pyridin-5-yl)-2,3-dihydro-benzo[f][1,4]oxazepine] | ≥ 75%
6 | CC1(C)CN=C(c2cnc3ccccc3c2)c2cccc(C#N)c2O1 [B1-54, 2,2-Dimethyl-5-quinolin-3-yl-2,3-dihydro-benzo[f][1,4]oxazepine-9-carbonitrile] | ≥ 75%

System: not given
Assay: not given
Conditions: not given

Row | Structure (SMILES) | melting point
7 | CC1(C)N=C(c2cnc3ccccc3c2)c2cccc(F)c2OC1(C)C [B1-43, 9-Fluoro-5-(3-quinolinyl)-2,2,3,3-tetramethyl-2,3-dihydro-benzo[f][1,4]oxazepine] | 132 to 133 °C
8 | Fc1cccc2c1C(c1cnc3ccccc3c1)=NCCO2 | 126 to 128 °C
9 | Cc1cc(C2=NCCOc3c(Cl)cccc32)cnc1C | 142 to 143 °C
10 | CC1(C)CN=C(c2cnc3c(F)cccc3c2)c2cccc(Cl)c2O1 [B1-39, 9-Chloro-5-(8-fluoro-quinolin-3-yl)-2,2-dimethyl-2,3-dihydro-benzo[f][1,4]oxazepine] | 190 to 191 °C
11 | CC1(C)CN=C(c2cnc3c(F)cccc3c2)c2ccccc2O1 [B1-37, 5-(8-Fluoro-quinolin-3-yl)-2,2-dimethyl-2,3-dihydro-benzo[f][1,4]oxazepine] | 165 to 167 °C
12 | O=C1COc2ccccc2C(c2cnc3ccccc3c2)N1 (centres unmarked) [B4-46, 5-Quinolin-3-yl-4,5-dihydro-benzo[f][1,4]oxazepin-3-one] | 225 to 227 °C
13 | CC1(c2ccccc2)CN=C(c2cnc3ccccc3c2)c2ccccc2O1 (centres unmarked) [B1-52, 2-Methyl-2-phenyl-5-quinolin-3-yl-2,3-dihydro-benzo[f][1,4]oxazepine] | 196 to 197 °C
14 | CC1(C)Oc2ccccc2C(c2cnc3ccccc3c2)NC1=O (centres unmarked) [B4-53, 2,2-Dimethyl-5-quinolin-3-yl-4,5-dihydro-benzo[f][1,4]oxazepin-3-one] | 225 to 227 °C
15 | CC1(C)CN=C(c2cnc3cccc(Cl)c3c2)c2cccc(Cl)c2O1 [B1-57, 9-Chloro-5-(5-chloro-quinolin-3-yl)-2,2-dimethyl-2,3-dihydro-benzo[f][1,4]oxazepine] | 157 to 159 °C
16 | CC1(C)CN=C(c2cnc3c(Cl)cccc3c2)c2ccccc2O1 [B1-46, 5-(8-Chloro-quinolin-3-yl)-2,2-dimethyl-2,3-dihydro-benzo[f][1,4]oxazepine] | 155 to 157 °C
17 | c1ccc2c(c1)OCCN=C2c1cnc2ccccc2c1 [B1-1, 5-(3-Quinolinyl)-2,3-dihydro-benzo[f][1,4]oxazepine] | 115 to 117 °C
18 | CC1(C)CNC(c2cnc3c(F)cccc3c2)c2cccc(Cl)c2O1 (centres unmarked) [B4-49, 9-Chloro-5-(8-fluoro-quinolin-3-yl)-2,2-dimethyl-2,3,4,5-tetrahydro-benzo[f][1,4]oxazepine] | 133 to 134 °C
19 | Cc1cccc2ncc(C3=NCC(C)(C)Oc4c(Cl)cccc43)cc12 [B1-58, 9-Chloro-2,2-dimethyl-5-(5-methyl-quinolin-3-yl)-2,3-dihydro-benzo[f][1,4]oxazepine] | 160 to 162 °C
20 | Cc1ccc2ncc(C3=NCC(C)(C)Oc4c(Cl)cccc43)cc2c1 [B1-60, 9-Chloro-2,2-dimethyl-5-(6-methylquinolin-3-yl)-2,3-dihydro-benzo[f][1,4]oxazepine] | 166 to 168 °C
21 | CC1(C)CN=C(c2cnc3ccccc3c2)c2ccccc2[S+]1[O-] (centres unmarked) [B2-16, 6,6-Dimethyl-9-quinolin-3-yl-6,7-dihydro-5-thia-8-aza-benzocycloheptene 5-oxide] | 118 to 120 °C
22 | CC1(C(F)(F)F)CN=C(c2cnc3c(F)cccc3c2)c2ccccc2O1 (centres unmarked) [B1-56, 5-(8-Fluoro-quinolin-3-yl)-2-methyl-2-trifluoromethyl-2,3-dihydro-benzo[f][1,4]oxazepine] | 103 to 105 °C
23 | CC(=O)N1CC(C)(C)Oc2c(F)cccc2C1c1cnc2c(F)cccc2c1 (centres unmarked) [B4-52, 1-[9-Fluoro-5-(8-fluoro-quinolin-3-yl)-2,2-dimethyl-2,3-dihydro-5H-benzo[f][1,4]oxazepin-4-yl]-ethanone] | 132 to 134 °C
24 | CC1(C)CN=C(c2cnc3ccccc3c2)c2cccc(Cl)c2O1.Cl | 149 to 151 °C
25 | CCC1(C)CN=C(c2cnc3c(F)cccc3c2)c2cccc(Cl)c2O1 (centres unmarked) [B1-48, 9-Chloro-2-ethyl-5-(8-fluoro-quinolin-3-yl)-2-methyl-2,3-dihydro-benzo[f][1,4]oxazepine] | 144 to 146 °C
26 | CC1(C)COc2cc(F)ccc2C(c2cnc3ccccc3c2)=N1 [B1-85, 8-Fluoro-3,3-dimethyl-5-quinolin-3-yl-2,3-dihydro-benzo[f][1,4]oxazepine] | 133 to 135 °C

Row | Structure (SMILES) | melting point
27 | CCN1CC(C)(C)Oc2c(F)cccc2C1c1cnc2c(F)cccc2c1 (centres unmarked) [B4-48, 4-Ethyl-9-fluoro-5-(8-fluoro-quinolin-3-yl)-2,2-dimethyl-2,3,4,5-tetrahydro-benzo[f][1,4]oxazepine] | 117 to 118 °C
28 | CC1(C)CN=C(c2cnc3ccccc3c2)c2cccc(Cl)c2O1.O=C(O)C(F)(F)F | 129 to 131 °C
29 | CC1(C)CN=C(c2cnc3c(F)cccc3c2)c2cccc(F)c2O1.O=C(O)C(F)(F)F | 174 to 176 °C
30 | CC1(C)CN=C(c2cnc3c(F)cccc3c2)c2ccccc2S1 [B2-13, 2,2-Dimethyl-5-(8-fluoro-quinolin-3-yl)-2,3-dihydro-benzo[f][1,4]thiazepine] | 181 to 183 °C
31 | CC1(C)CN=C(c2cnc3ccccc3c2)c2cccc(F)c2S1 [B2-14, 4-Fluoro-6,6-dimethyl-9-quinolin-3-yl-6,7-dihydro-5-thia-8-aza-benzocycloheptene] | 119 to 122 °C
32 | CCC1(C)CN=C(c2cnc3c(F)cccc3c2)c2ccccc2O1 (centres unmarked) [B1-47, 2-Ethyl-5-(8-fluoro-quinolin-3-yl)-2-methyl-2,3-dihydro-benzo[f][1,4]oxazepine] | 93 to 95 °C
33 | CC1(C)CNC(c2cnc3c(F)cccc3c2)c2cccc(F)c2O1 (centres unmarked) [B4-47, 9-Fluoro-5-(8-fluoro-quinolin-3-yl)-2,2-dimethyl-2,3,4,5-tetrahydro-benzo[f][1,4]oxazepine] | 130 to 131 °C
34 | CC1(C)CN=C(c2cnc3c(F)cccc3c2)c2cccc(F)c2S1 [B2-15, 4-Fluoro-9-(8-fluoro-quinolin-3-yl)-6,6-dimethyl-6,7-dihydro-5-thia-8-aza-benzocycloheptene] | 179 to 181 °C
35 | CC1N=C(c2cnc3ccccc3c2)c2ccccc2OC1(C)C (centres unmarked) [B1-42, 5-(3-Quinolinyl)-2,2,3-trimethyl-2,3-dihydro-benzo[f][1,4]oxazepine] | 139 to 142 °C
36 | CC1(C)CN=C(c2cnc3c(F)cccc3c2)c2cccc(F)c2O1 [B1-38, 2,2-Dimethyl-9-fluoro-5-(8-fluoro-quinolin-3-yl)-2,3-dihydro-benzo[f][1,4]oxazepine] | 171 to 173 °C
37 | CC1(C)CN=C(c2cnc3c(Cl)cccc3c2)c2cccc(Cl)c2O1 [B1-41, 2,2-Dimethyl-9-chloro-5-(8-chloro-quinolin-3-yl)-2,3-dihydro-benzo[f][1,4]oxazepine] | 214 to 217 °C
38 | CC1(C)CN(C=O)C(c2cnc3c(F)cccc3c2)c2cccc(F)c2O1 (centres unmarked) [B4-51, 9-Fluoro-5-(8-fluoro-quinolin-3-yl)-2,2-dimethyl-2,3-dihydro-5H-benzo[f][1,4]oxazepine-4-carbaldehyde] | 131 to 133 °C
39 | CC1(C)N=C(c2cnc3c(F)cccc3c2)c2cccc(F)c2OC1(C)C [B1-45, 9-Fluoro-5-(8-fluoro-quinolin-3-yl)-2,2,3,3-tetramethyl-2,3-dihydro-benzo[f][1,4]oxazepine] | 144 to 145 °C
40 | Cc1cccc2cc(C3=NCC(C)(C)Oc4c(Cl)cccc43)cnc12 [B1-40, 9-Chloro-2,2-dimethyl-5-(8-methylquinolin-3-yl)-2,3-dihydro-benzo[f][1,4]oxazepine] | 145 to 147 °C
41 | CC1(Cl)CN=C(c2cnc3ccccc3c2)c2cccc(F)c2O1 (centres unmarked) [B1-30, 2-Chloro-9-fluoro-2-methyl-5-(3-quinolinyl)-2,3-dihydro-benzo[f][1,4]oxazepine] | 123 to 125 °C
42 | CC1(C)CN=C(c2cnc3c(F)cccc3c2)c2cccc(F)c2O1.Cl | 164 to 166 °C
43 | CCC1(C)CN=C(c2cnc3c(F)cccc3c2)c2cccc(F)c2O1 (centres unmarked) [B1-49, 2-Ethyl-9-fluoro-5-(8-fluoro-quinolin-3-yl)-2-methyl-2,3-dihydro-benzo[f][1,4]oxazepine] | 140 to 142 °C
44 | COc1cccc2c1OC(C)(C)CN=C2c1cnc2ccccc2c1 [B1-55, 9-Methoxy-2,2-dimethyl-5-quinolin-3-yl-2,3-dihydro-benzo[f][1,4]oxazepine] | 153 to 155 °C
45 | c1ccc2c(c1)N=C(c1cnc3ccccc3c1)c1ccccc1O2 [B1-83, 11-Quinolin-3-yl-dibenzo[b,f][1,4]oxazepine] | 182 to 184 °C

System: cucumber gray mold pathogen (Botrytis cinerea)
Assay: Cucumber gray mold control test
Assay type: in vivo
Conditions: 96 h, emulsion sprayed at 100 ppm active ingredient onto cucumber seedlings (Sagami Hanjiro), lesions on leaves after 4 days vs untreated, read-out: control value

Row | Structure (SMILES) | pest or weed control at 100 ppm
46 | CC1(C)CN=C(c2cnc3ccccc3c2)c2cc(Cl)ccc2O1 [B1-77, 7-Chloro-2,2-dimethyl-5-quinolin-3-yl-2,3-dihydro-benzo[f][1,4]oxazepine] | ≥ 75%
47 | CC1(C)CN=C(c2cnc3ccccc3c2)c2cccc(Cc3ccccc3)c2O1 [B1-74, 9-Benzyl-2,2-dimethyl-5-quinolin-3-yl-2,3-dihydro-benzo[f][1,4]oxazepine] | ≥ 75%
